We go through 6 molecules from patent US8673940B2, “Compounds for the treatment of diseases associated with amyloid or amyloid-like proteins” (AC Immune SA, priority 2006, dated 2014).

Structures can show the parent of a compound that is named as a salt. Where two headings read alike, the source gives them in different places.

For data set [1] the following is noted: prior-art compound, stated in background; cited from earlier work.
The conditions of data set [2]: prior-art compound, stated in background; cited from earlier work. The source holds these as a separate data set.
Data set [3] concerns the target T1, amyloid beta (Aβ) 1-42 peptide (Homo sapiens, UniProt P05067).
T1 construct: amyloid beta (Aβ) 1-42 peptide; purchased Bachem
Kind of data set: Thioflavin T spectrofluorescence assay, inhibition of Aβ1-42 aggregation. The class given is biochemical. Here is the method:
A number of the small molecules were tested for their capacity to inhibit the aggregation of amyloid beta (Aβ) 1-42 peptide using a thioflavin T spectrofluorescence assay.
Aβ1-42 lyophilized powder (Bachem) was reconstituted in hexafluoroisopropanol (HFIP) to 1 mM. The peptide solution was sonicated for 15 min at room temperature, agitated overnight, and aliquots were placed into non-siliconized microcentrifuge tubes. The HFIP was then evaporated under a stream of argon. The resulting peptide film was dried under vacuum for 10 min, tightly sealed and stored at −80° C. until used.
To assay for the small molecule-mediated inhibition of Aβ1-42 aggregation, the small molecules were dissolved before each experiment in anhydrous dimethyl sulfoxide (DMSO, Sigma-Aldrich) to reach a concentration of 7.4 mM. Aβ1-42 peptide film was dissolved in DMSO to reach 400 μM. Assay solution in PBS buffer was prepared in non-siliconized incubation tubes to reach the following concentrations: 330 μM small molecule, 33 μM Aβ1-42, 10 μM thioflavin T (ThT), and 12.8% DMSO. Therefore, the final molar ratio of small molecule to Aβ1-42 was 10:1. A positive control without a small molecule was prepared to measure maximum RFU. A negative control without Aβ1-42 was prepared for each small molecule. 3-Aminopyrazole trimer (Trimer) was tested in all assays to ascertain reproducibility between independent experiments. The solutions were incubated for 24 hrs at 37° C., and the spectrofluorescence (relative fluorescence units; RFU) was read in six replicates in black 384-well assay plates (Perkin-Elmer) on a Perkin-Elmer FluoroCount spectrofluorometer. Inhibition of aggregation is expressed as mean % inhibition or ±1 standard deviation (SD) according to the following equation: […]
Cut-off criterium for the selection of functional molecules was defined at 50% inhibition capacity.
The small molecules were evaluated for their capacity to mediate inhibition of Aβ1-42 aggregation at a 10:1 small molecule to Aβ1-42 molar ratio. The results are expressed as mean±standard deviation of two independent experiments.

Data set [4] addresses T2, Oregon Green labelled Aβ1-42 (Homo sapiens, UniProt P05067).
T2 construct: DMSO-stock solutions of Oregon Green labelled Aβ1-42 1:1 with deionized water
Description: FCS-assay with 5 nM Oregon Green labelled Aβ-peptide (disaggregation of preformed aggregates). The class given is biochemical. The procedure: In order to analyse for the disaggregating properties of the compounds, preformed aggregates were used, which were induced straight before the FCS-measurement by diluting 500 nM DMSO-stock solutions of Oregon Green labelled Aβ1-42 1:1 with deionized water. The final concentration of Oregon Green labelled Aβ-peptide was 5 nM in 1×PBS and 3% DMSO. In order to improve the reproducibility of the measurements of the concentration dependencies of all samples were prepared fourfold.

T2 sequence (P05067 672-713 limits assumed): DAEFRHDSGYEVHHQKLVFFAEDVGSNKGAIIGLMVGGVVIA
T1 sequence (P05067 672-713 limits assumed): as above

On to 3-Aminopyrazole trimer, for which, in data set [1], the carcinogenicity result is reported as “carcinogenic” and the mutagenicity entry is “mutagenic”. Further, the metabolic stability result in data set [2] was “metabolically unstable”.

For `Cc1ccc(-c2csc(NCc3cnc(Nc4ccccn4)s3)n2)cc1` (as salt: hydrochloride) [Compound 2z, N-(Pyridin-2-yl)-5-((4-p-tolylthiazol-2-ylamino)methyl)thiazol-2-amine trihydrochloride], the melting point (commonly the temperature, or range, at which the solid turns liquid) lay within 169 to 170 °C.

The molecule `Clc1ccc(-c2csc(NCc3cnc(NCc4ccccc4)s3)n2)cc1` [Compound 2ak, N-Benzyl-5-((4-(4-chlorophenyl)thiazol-2-ylamino)methyl)thiazol-2-amine] showed a melting point of 105 to 106 °C. Besides, 330 µM produced 37.2 ± 14.8% inhibition in data set [3] (24 h).

For the molecule `CCCCNc1cccc(CNc2cc(-c3ccc(F)cc3)[nH]n2)n1` [Compound 2am, N-Butyl-6-((5-(4-fluorophenyl)-1H-pyrazol-3-ylamino)methyl)pyridin-2-amine], the melting point lay within 93 to 94 °C.

Regarding `CCCNc1ccc(NCc2ccc(NCc3ccc(NCCC)nc3)nc2)nc1` [Compound 2c, N^5-Propyl-N^2-((6-((6-(propylamino)pyridin-3-yl)methylamino)pyridin-3-yl)methyl)pyridine-2,5-diamine], in data set [4] (100 nM compound), the “percentage of the "number of peaks" value obtained for the control reaction without added compound” value came out at 29.4% and the “percentage of the "peaks x height" value obtained for the control reaction without added compound” value came out at 26.6%. Moreover, in data set [4] (200 nM compound), the “percentage of the "number of peaks" value obtained for the control reaction without added compound” value stood at 51.2% and the “percentage of the "peaks x height" value obtained for the control reaction without added compound” value was determined as 45.1%.

Consider `Fc1ccc(-c2cc(NCc3cccc(NCc4ccccc4)n3)n[nH]2)cc1` [Compound 2t, N-Benzyl-6-((5-(4-fluorophenyl)-1H-pyrazol-3-ylamino)methyl)pyridin-2-amine], for which the inhibition (as a rule, how much of the control response was suppressed) at 330 µM in data set [3] (330 μM small molecule, 33 μM Aβ1-42 (10:1 molar ratio), 24 hrs at 37° C., mean ± SD of two independent experiments, read-out: % inhibition) came out at 86.8 ± 2.9%. Further, in data set [4] (200 nM compound), the “percentage of the "number of peaks" value obtained for the control reaction without added compound” value was determined as 67.2% and the “percentage of the "peaks x height" value obtained for the control reaction without added compound” value is 53.3%.
